One series is described as follows: LD50 (mouse) p.o. Particulars: in vivo, po.
Series [1] has as its system apomorphine climbing, mouse. Briefly: apomorphine climbing test on the mouse. The series is classed as in vivo. The following applies: after 1 h.
In series [2] the test system is rhesus monkeys sensitised with haloperidol. Briefly: dyskinesia in rhesus monkeys sensitised with haloperidol. The class given is in vivo, rhesus monkey. Particulars: for Dyskinesia threshold dose p.o.: rhesus monkeys sensitised with haloperidol; for Dyskinesia index I:II: ratio of climbing test ED50 (I) to dyskinesia threshold dose (II). An excerpt:
The dyskinetic effects are among the most disturbing side effects of neuroleptic drugs. These include Parkinsonian manifestations such as tremor, rigidity and akinesia but also dyskinesia in the mouth-tongue-pharynx region.
The investigation of such symptoms in an animal model is possible using rhesus monkeys sensitised with haloperidol. After being given neuroleptic drugs, which have extrapyramidal motor effects in humans, these animals show typical dyskinesia in the mouth and tongue region (according to J. Liebmann and R. Neale, Psychopharmacology 68, 25-29 (1980) modified).

Four compounds from patent US5006533A, “Certain 3-bromo-2,6-dimethoxybenzamides and pharmaceutical use thereof” (Boehringer Ingelheim GmbH, priority 1986, dated 1991) can be followed below.

Where a name gives a salt, the structure may show the parent alone.

By LD50 is commonly meant the dose at which mortality reaches 50%. Low values mean greater toxicity, high ones lower toxicity. The term ED50 denotes the dose at which the effect has come halfway, by size or by number of responders. A high value points to a need for a large dose. As for `COc1ccc(Br)c(OC)c1C(=O)NC1CC2CC(O)C(C1)N2Cc1ccc(Cl)cc1` (racemic) [X = Cl, N-[8-(4-Chlorobenzyl)-6-hydroxy-3-nortropanyl]-2,6-dimethoxy-3-bromobenzamide-hydrochloride], in “LD50 (mouse) p.o.”, the median lethal dose (LD50) was > 1000 mg/kg. The compound further showed an ED50 in series [1] of 0.85 mg/kg. Further, in series [2], the “Dyskinesia threshold dose p.o.” value is given as 30 mg/kg and the “Dyskinesia index I:II” value amounted to 0.028.
For `COc1ccc(Br)c(OC)c1C(=O)NC1CC2CCC(C1)N2Cc1ccccc1` (stereo not drawn) [A, N-(8-benzyl-3-nortropanyl)-2,6-dimethoxy-3-bromobenzamide, reference compound], in that order: ~300 mg/kg, 1.8 mg/kg, 10 mg/kg and 0.18.
As for `COc1ccc(Br)c(OC)c1C(=O)NC1CC2CC(O)C(C1)N2Cc1ccc(F)cc1` (stereo not drawn) [X = F, N-[8-(4-Fluorobenzyl)-6-hydroxy-3-nortropanyl]-2,6-dimethoxy-3-bromobenzamide-hydrochloride], in series [1], the ED50 was found to be 0.63 mg/kg. For the same compound, in series [2], the “Dyskinesia threshold dose p.o.” value turned out to be 8 mg/kg and the “Dyskinesia index I:II” value was determined as 0.078.
As to `COc1ccc(Br)c(OC)c1C(=O)NC1CC2CC(O)C(C1)N2Cc1ccccc1` (stereo not drawn) [X = H, N-(8-Benzyl-6-hydroxy-3-nortropanyl)-2,6-dimethoxy-3-bromobenzamide fumarate], in the series “LD50 (mouse) p.o.”, the LD50 was ~300 mg/kg. The compound further displayed an ED50 in series [1] of 1.2 mg/kg. In series [2], the “Dyskinesia threshold dose p.o.” value is given as > 15 mg/kg and the “Dyskinesia index I:II” value was < 0.08.
